# Data reported in US4495356A, “1,4-Dihydropyridine compound” (Nikken Chemicals Co., Ltd., priority 1982, dated 1985).
# Experiments:
# [1] = tested on: hepatic disorder induced by carbon tetrachloride; assay: Effect on hepatic disorder induced by carbon tetrachloride in rats (Example 5; serum GOT, GPT, bilirubin); format: in vivo, SLC-Wistar male rats; settings: CCl4 0.5 ml/kg i.p., blood 24 hours after CCl4; for Bilirubin in serum: normal 0.12 ± 0.02, no combination compound 0.26 ± 0.02; for GPT in serum: normal 32 ± 3, no combination compound 10606 ± 1952; for GOT in serum: normal 73 ± 5, no combination compound 18228 ± 2032
# Protocol: Five rats were used in each test group. The sample compound (i.e., the compound prepared in Example 1) was suspended at a concentration of 40 mg/ml in a 0.1% aqueous solution of Tween-80. Alpha-tocopherol was dissolved at a concentration of 40 mg/ml in an olive oil. This solution was administered orally at a dose of 200 mg/kg each for 2 days. Glutathione was dissolved at a concentration of 100 mg/ml in a 0.1% aqueous solution of Tween-80. This solution was orally administered at a dose of 500 mg/kg for 2 days. Carbon tetrachloride was intraperitoneally administered as a 10% olive oil solution at a dose of 5 ml/kg (0.5 ml/kg in terms of CCl4) one hour after the final administration of the sample compound. Blood samples were collected from the carotid artery under pentobarbital anesthesia, 24 hours after the administration of carbon tetrachloride. […] The determination of GOT and GPT in serum was carried out according to a UV method and the determination of bilirubin was carried out according to a diazo method.
# [2] = tested on: liver disorder induced by D-galactosamine; assay: Effect on liver disorder induced by D-galactosamine in rats (serum GOT, GPT, bilirubin); format: in vivo, Wistar-Imamichi male rats; settings: D-galactosamine 400 mg/kg i.p., 200 mg/kg orally for 2 days, blood 24 hours after D-galactosamine; for Bilirubin in serum: normal 0.12 ± 0.02, no combination compound 0.43 ± 0.06; for GPT in serum: normal 15 ± 1, no combination compound 2195 ± 460; for GOT in serum: normal 97 ± 3, no combination compound 6170 ± 1507
# Protocol: Effect of 3,5-diethoxycarbonyl-4-[2'-(5',6'-dihydro-p-dioxinyl)]-2,6-dimethyl-1,4-dihydropyridine (compound of Example 1) on liver disorder induced by D-galactosamine.
# The effect of the sample compound to be tested on hepatic disorder was evaluated by determining the levels of GOT, GPT and bilirubin, which are known as an indicator of hepatic disorder, in serum, after administering D-galactosamine hydrochloride and the sample compound to Wistar-Imamichi male rats (8 week age and body weight of 260 to 280 g) as follows.
# Five rats were used in each test group. The sample compound (i.e., the compound prepared in Example 1) was suspended at a concentration of 40 mg/ml in a 0.1% aqueous solution of Tween-80 (Trademark of surfactant available from Atlas Chemical Corp.). Alpha-tocopherol was dissolved at a concentration of 40 mg/ml in olive oil. This solution was administered orally at a dose of 200 mg/kg each for 2 days (25 and 1 hours before the administration of D-galactosamine). D-galactosamine was dissolved at a concentration of 100 mg/ml in a Physiological saline and this solution was administered intraperitoneally at a single dose of 400 mg/kg one hour after the final administration of the sample compound.
# Blood samples were collected from the carotid artery under pentobarbital anesthesia, 24 hours after the administration of D-galactosamine. The rats were fasted for 18 to 20 hours before collecting of blood sample.
# (§1) The determination of GOT and GPT in serum was carried out according to a UV method and the determination of bilirubin was carried out according to a diazo method.
# [3] = in vivo; settings: rat, oral, rats 5 week age, observed for 3 days
# [4] = tested on: hepatic disorder induced by carbon tetrachloride; assay: Effect on hepatic disorder induced by carbon tetrachloride in rats (Examples 6 and 7; serum GOT, GPT, bilirubin); format: in vivo, SLC-Wistar male rats; settings: CCl4 0.5 ml/kg i.p., 200 mg/kg orally for 2 days, blood 24 hours after CCl4; for Bilirubin in serum: normal 0.10 ± 0.00, no combination compound 0.24 ± 0.02; for GPT in serum: normal 46 ± 6, no combination compound 10266 ± 818; for GOT in serum: normal 97 ± 10, no combination compound 16650 ± 1636
# Protocol: The effects of the sample compounds on hepatic disorders were evaluated by determining the levels of GOT, GPT, and bilirubin […] in serum, after administering carbon tetrachloride and the sample compound to SLC-Wistar male rats (10 week age and body weight of 240 to 270 g) as follows.
# Five rats were used in each test group. The sample compounds (i.e., the compounds prepared in Examples 2 and 3) were suspended at a concentration of 40 mg/ml in a 0.1% aqueous solution of Tween-80. Alpha-tocopherol was dissolved at a concentration of 40 mg/ml in olive oil. This solution was administered orally at a dose of 200 mg/kg each for 2 days. Glutathione was dissolved at a concentration of 100 mg/ml in a 0.1% aqueous solution of Tween-80. This solution was orally administered at a dose of 500 mg/kg for 2 days. Carbon tetrachloride was intraperitoneally administered as a 10% olive oil solution at a dose of 5 ml/kg (0.5 ml/kg in terms of CCl4) one hour after the final administration of each sample compound.
# Blood sampels were collected from the carotid artery under pentobarbital anesthesia, 24 hours after the administration of carbon tetrachloride. The rats were fasted for 18 to 20 hours before collecting of a blood sample.
# as §1
# [5] = glutathione 500 mg/kg orally for 2 days
SMILES,"Bilirubin in serum [1, 5] [mg/dL]","GPT in serum [1, 5] [KU]","GOT in serum [1, 5] [KU]",Bilirubin in serum [2] [mg/dL],GPT in serum [2] [KU],GOT in serum [2] [KU],Bilirubin in serum ([1]; 200 mg/kg orally for 2 days) [mg/dL],GPT in serum ([1]; 200 mg/kg orally for 2 days) [KU],GOT in serum ([1]; 200 mg/kg orally for 2 days) [KU],LD50 at 72 h [3] [mg/kg],Bilirubin in serum [4] [mg/dL],GPT in serum [4] [KU],GOT in serum [4] [KU]
N[C@@H](CCC(=O)N[C@@H](CS)C(=O)NCC(=O)O)C(=O)O [glutathione],0.22 ± 0.02,7722 ± 1170,11272 ± 1904,–,–,–,–,–,–,–,–,–,–
"CCOC(=O)C1=C(C)NC(C)=C(C(=O)OCC)C1C1=COCCO1 [Example 1, 3,5-diethoxycarbonyl-4-[2'-(5',6'-dihydro-p-dioxinyl)]-2,6-dimethyl-1,4-dihydropyridine]",–,–,–,0.30 ± 0.06,862 ± 373,2194 ± 777,0.14 ± 0.02,1396 ± 290,1800 ± 321,~2000,–,–,–
"CCCOC(=O)C1=C(C)NC(C)=C(C(=O)OCCC)C1C1=COCCO1 [Example 2, 3,5-di-n-propyloxycarbonyl-4-[2'-(5',6'-dihydro-p-dioxynyl)]-2,6-dimethyl-1,4-dihydropyridine]",–,–,–,–,–,–,–,–,–,≥ 2000,0.13 ± 0.03,1443 ± 228,2456 ± 734
"Cc1c(C)c2c(c(C)c1O)CCC(C)(CCCC(C)CCCC(C)CCCC(C)C)O2 (stereo not drawn) [alpha-tocopherol, reference compound]",–,–,–,0.26 ± 0.02,1043 ± 189,3065 ± 440,0.18 ± 0.02,5764 ± 1564,5662 ± 793,–,0.26 ± 0.04,9106 ± 591,14558 ± 1049
"COC(=O)C1=C(C)NC(C)=C(C(=O)OC)C1C1=COCCO1 [Example 3, 3,5-dimethoxycarbonyl-4-2'-(5',6'-dihydro-p-dioxinyl)-2,6-dimethyl-1,4-dihydropyridine]",–,–,–,–,–,–,–,–,–,–,0.14 ± 0.02,680 ± 107,901 ± 127
